Measurements published in ChEMBL document CHEMBL1146670, “Structure based design of a series of potent and selective non peptidic PTP-1B inhibitors” (Bioorg Med Chem Lett, 2004).
pIC50: −log10 of the molar value.

Assays:
[1] = biological target: T1, Receptor-type tyrosine-protein phosphatase C (Homo sapiens, UniProt P08575); experiment: Inhibitory activity against CD45 protein-tyrosine phosphatase
T1 sequence (P08575 whole entry): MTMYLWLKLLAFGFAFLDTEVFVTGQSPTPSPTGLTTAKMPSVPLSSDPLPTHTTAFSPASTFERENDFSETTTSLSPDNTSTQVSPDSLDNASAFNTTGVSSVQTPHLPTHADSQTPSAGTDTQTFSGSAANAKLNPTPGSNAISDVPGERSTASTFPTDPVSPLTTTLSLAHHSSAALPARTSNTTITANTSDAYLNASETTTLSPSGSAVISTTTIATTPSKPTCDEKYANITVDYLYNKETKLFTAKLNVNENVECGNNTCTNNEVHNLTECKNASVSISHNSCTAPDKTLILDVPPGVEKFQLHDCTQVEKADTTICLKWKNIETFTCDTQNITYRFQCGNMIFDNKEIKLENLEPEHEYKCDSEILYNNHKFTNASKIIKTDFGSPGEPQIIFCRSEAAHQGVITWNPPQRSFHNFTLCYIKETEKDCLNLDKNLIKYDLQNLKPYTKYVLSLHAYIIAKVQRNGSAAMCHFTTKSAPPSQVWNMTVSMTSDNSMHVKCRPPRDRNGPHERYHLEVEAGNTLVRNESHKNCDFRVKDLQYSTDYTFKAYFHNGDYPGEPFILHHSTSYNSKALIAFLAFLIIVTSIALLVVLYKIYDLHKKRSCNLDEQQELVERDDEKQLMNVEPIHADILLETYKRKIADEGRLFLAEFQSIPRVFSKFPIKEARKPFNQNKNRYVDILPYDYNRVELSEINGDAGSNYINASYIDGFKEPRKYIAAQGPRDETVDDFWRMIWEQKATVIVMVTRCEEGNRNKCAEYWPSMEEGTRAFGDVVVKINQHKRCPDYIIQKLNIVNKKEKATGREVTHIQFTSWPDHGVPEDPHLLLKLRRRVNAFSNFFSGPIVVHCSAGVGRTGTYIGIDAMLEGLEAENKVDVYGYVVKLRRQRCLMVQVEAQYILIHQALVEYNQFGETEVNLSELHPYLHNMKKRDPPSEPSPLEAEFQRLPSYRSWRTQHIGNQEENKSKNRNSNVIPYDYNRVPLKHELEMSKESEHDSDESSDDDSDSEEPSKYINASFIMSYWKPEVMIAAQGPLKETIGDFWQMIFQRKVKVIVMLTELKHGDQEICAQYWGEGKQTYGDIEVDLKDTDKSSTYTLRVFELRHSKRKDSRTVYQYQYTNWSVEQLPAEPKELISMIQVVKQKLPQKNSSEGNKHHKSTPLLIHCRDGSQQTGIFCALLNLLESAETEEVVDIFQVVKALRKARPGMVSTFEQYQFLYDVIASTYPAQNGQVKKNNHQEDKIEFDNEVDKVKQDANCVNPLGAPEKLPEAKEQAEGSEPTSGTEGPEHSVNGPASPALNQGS

[2] = biological target: T2, Tyrosine-protein phosphatase non-receptor type 1 (Homo sapiens, UniProt P18031); experiment: Inhibitory activity against Protein tyrosine phosphatase 1B (PTP1B) over-expressed in intact Sf9 cell assay
T2 sequence (P18031 whole entry): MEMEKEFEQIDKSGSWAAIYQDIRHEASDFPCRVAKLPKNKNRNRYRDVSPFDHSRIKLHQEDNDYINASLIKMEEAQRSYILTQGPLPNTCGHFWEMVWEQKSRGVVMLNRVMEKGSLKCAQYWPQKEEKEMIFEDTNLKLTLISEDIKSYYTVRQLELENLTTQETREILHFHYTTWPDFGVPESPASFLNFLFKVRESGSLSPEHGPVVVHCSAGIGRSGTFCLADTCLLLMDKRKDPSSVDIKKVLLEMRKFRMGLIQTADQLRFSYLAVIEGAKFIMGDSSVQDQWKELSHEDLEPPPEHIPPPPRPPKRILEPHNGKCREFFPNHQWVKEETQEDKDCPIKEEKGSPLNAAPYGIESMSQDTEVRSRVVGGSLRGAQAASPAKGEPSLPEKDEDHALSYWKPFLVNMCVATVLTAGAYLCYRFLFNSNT

[3] = biological target: T2, Tyrosine-protein phosphatase non-receptor type 1; experiment: Inhibitory activity against protein tyrosine phosphatase 1B (PTP1B) was determined in fluorescein diphosphate (FDP) assay
[4] = biological target: T3, Tyrosine-protein phosphatase non-receptor type 2 (Homo sapiens, UniProt P17706); experiment: Inhibitory activity against T cell protein tyrosine phosphatase; type: cell-based
T3 sequence (P17706 whole entry): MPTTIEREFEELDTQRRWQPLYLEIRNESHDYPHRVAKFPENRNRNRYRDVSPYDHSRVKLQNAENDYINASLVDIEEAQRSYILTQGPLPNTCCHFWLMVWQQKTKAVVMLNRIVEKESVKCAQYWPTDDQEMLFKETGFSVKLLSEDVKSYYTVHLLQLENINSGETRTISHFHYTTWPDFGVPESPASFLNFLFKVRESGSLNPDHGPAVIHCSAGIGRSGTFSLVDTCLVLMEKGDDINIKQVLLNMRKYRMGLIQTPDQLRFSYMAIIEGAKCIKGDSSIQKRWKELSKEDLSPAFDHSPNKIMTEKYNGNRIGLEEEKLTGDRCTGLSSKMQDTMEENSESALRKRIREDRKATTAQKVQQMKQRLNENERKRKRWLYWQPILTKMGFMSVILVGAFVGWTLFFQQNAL

In the case of O=P(O)(O)C(F)(F)c1ccc(CC(Cc2ccc(C(F)(F)P(=O)(O)O)c(Br)c2)(c2ccccc2)n2nnc3ccccc32)cc1 (stereo unspecified), the pIC50 [1] was 4.60, the pIC50 [2] was 6.80 and the pIC50 [3] was 8.30. The pIC50 [4] was 8.40.

Work on COC(=O)c1ccc(C(Cc2ccc(C(F)(F)P(=O)(O)O)cc2)(Cc2ccc(C(F)(F)P(=O)(O)O)cc2)n2nnc3ccccc32)cc1 yielded a pIC50 [1] of 4.30, a pIC50 [2] of 7.08 and a pIC50 [3] of 7.96. It also gave a pIC50 [4] of 7.80.

O=P(O)(O)C(F)(F)c1ccc(CC(Cc2ccc(C(F)(F)P(=O)(O)O)cc2)(c2ccccc2)n2nnc3ccccc32)cc1 gave a pIC50 [1] of 4.30, a pIC50 [2] of 6.92 and a pIC50 [4] of 8.00.

For NS(=O)(=O)c1ccccc1-c1ccc(CC(Cc2ccc(C(F)(F)P(=O)(O)O)cc2)(c2ccccc2)n2nnc3ccccc32)cc1 (stereo unspecified), the pIC50 [1] was 4.30, the pIC50 [2] was 6.03 and the pIC50 [3] was 7.16. For the same compound, the pIC50 [4] was 7.09.

Work on O=P(O)(O)C(F)(F)c1ccc(CC(Cc2ccc(-c3ccccc3-c3nn[nH]n3)cc2)(c2ccccc2)n2nnc3ccccc32)cc1 (stereo unspecified) yielded a pIC50 [1] of 4.30, a pIC50 [2] of 6.43 and a pIC50 [3] of 7.13. For the same compound, the pIC50 [4] was 7.07.

With Cc1ccc2cc(-c3ccc(CC(Cc4ccc(C(F)(F)P(=O)(O)O)cc4)(c4ccccc4)n4nnc5ccccc54)cc3)cc(P(=O)(O)O)c2n1 (stereo unspecified) the pIC50 [1] was 4.30 and the pIC50 [2] was 6.66.

O=P(O)(O)C(F)(F)c1ccc(CC(Cc2ccc(C(F)(F)P(=O)(O)O)cc2)(c2nnn[nH]2)n2nnc3ccccc32)cc1 gave a pIC50 [1] of 5.14, a pIC50 [2] of 5.92 and a pIC50 [3] of 7.49. The pIC50 [4] was 7.80.

For COC(CC(C)C)c1ccc2cc(-c3ccc(CC(Cc4ccc(C(F)(F)P(=O)(O)O)cc4)(c4ccccc4)n4nnc5ccccc54)cc3)cc(P(=O)(O)O)c2n1 (stereo in doubt; 21a), the pIC50 [1] was 4.30.

For COC(CC(C)C)c1ccc2cc(-c3ccc(CC(Cc4ccc(C(F)(F)P(=O)(O)O)cc4)(c4ccccc4)n4nnc5ccccc54)cc3)cc(P(=O)(O)O)c2n1 (stereo in doubt; 21d), the pIC50 [1] was 4.49 and the pIC50 [4] was 6.03.

In the case of O=P(O)(O)C(F)(F)c1ccc(CC(CCCc2ccccc2)(c2ccccc2)n2nnc3ccccc32)cc1 (stereo unspecified), the pIC50 [1] was 4.52, the pIC50 [2] was 6.19 and the pIC50 [3] was 7.34. For the same compound, the pIC50 [4] was 7.14.

With O=P(O)(O)C(F)(F)c1ccc(CC(Cc2ccc(-c3ccccc3)cc2)(c2ccccc2)n2nnc3ccccc32)cc1 (stereo unspecified) the pIC50 [1] was 4.16 and the pIC50 [2] was 5.80.

O=C(OCc1ccccc1)C(Cc1ccc(C(F)(F)P(=O)(O)O)cc1)(c1ccccc1)n1nnc2ccccc21 (stereo unspecified) was tested, and the pIC50 [1] was 4.30, the pIC50 [2] was 5.77 and the pIC50 [3] was 6.62. It also gave a pIC50 [4] of 6.54.

COC(CC(C)C)c1ccc2cc(-c3ccc(CC(Cc4ccc(C(F)(F)P(=O)(O)O)cc4)(c4ccccc4)n4nnc5ccccc54)cc3)cc(P(=O)(O)O)c2n1 (stereo in doubt; 21c) gave a pIC50 [1] of 4.30 and a pIC50 [4] of 5.95.

Compound O=P(O)(O)C(F)(F)c1ccc(CC(Cc2ccc(OCc3ccccc3)cc2)(c2ccccc2)n2nnc3ccccc32)cc1 (stereo unspecified) has a pIC50 [1] of 4.19, a pIC50 [2] of 5.39 and a pIC50 [3] of 7.01. For the same compound, the pIC50 [4] was 7.21.

Work on O=P(O)(O)C(F)(F)c1ccc(CC(Cc2ccc(C(F)(F)P(=O)(O)O)cc2)(c2ccc(F)c(F)c2)n2nnc3ccccc32)cc1 yielded a pIC50 [1] of 4.30 and a pIC50 [4] of 8.10.

O=P(O)(O)C(F)(F)c1ccc(CC(C/C=C/c2ccccc2)(c2ccccc2)n2nnc3ccccc32)cc1 (stereo unspecified) showed a pIC50 [1] of 4.30, a pIC50 [2] of 6.34 and a pIC50 [3] of 7.31. It also gave a pIC50 [4] of 7.31.

Work on O=P(O)(O)C(F)(F)c1ccc(/C=C/CC(Cc2ccc(C(F)(F)P(=O)(O)O)cc2)(c2ccccc2)n2nnc3ccccc32)cc1 (stereo unspecified) yielded a pIC50 [1] of 4.30, a pIC50 [2] of 6.92 and a pIC50 [3] of 7.80. It also gave a pIC50 [4] of 8.00.

O=P(O)(O)c1cccc(-c2ccc(CC(Cc3ccc(C(F)(F)P(=O)(O)O)cc3)(c3ccccc3)n3nnc4ccccc43)cc2)c1 (stereo unspecified) was tested, and the pIC50 [1] was 4.30.

O=P(O)(O)C(F)(F)c1ccc(CC(Cc2ccc(C(F)(F)P(=O)(O)O)cc2)(c2nc(-c3ccccc3)cs2)n2nnc3ccccc32)cc1 was tested, and the pIC50 [1] was 4.30, the pIC50 [2] was 6.72 and the pIC50 [3] was 7.72. It also gave a pIC50 [4] of 7.74.

With O=P(O)(O)C(F)(F)c1ccc(CC(Cc2ccc(C(F)(F)P(=O)(O)O)cc2)(c2nc3ccccc3s2)n2nnc3ccccc32)cc1 the pIC50 [1] was 4.96, the pIC50 [2] was 7.06 and the pIC50 [3] was 7.74. It also gave a pIC50 [4] of 7.70.

Compound COC(CC(C)C)c1ccc2cc(-c3ccc(CC(Cc4ccc(C(F)(F)P(=O)(O)O)cc4)(c4ccccc4)n4nnc5ccccc54)cc3)cc(P(=O)(O)O)c2n1 (stereo in doubt; 21b) has a pIC50 [1] of 4.30 and a pIC50 [4] of 7.39.

O=P(O)(O)C(F)(F)c1ccc(CC(Cc2ccc(C(F)(F)P(=O)(O)O)cc2)(c2ccc3ccccc3n2)n2nnc3ccccc32)cc1 showed a pIC50 [1] of 4.30, a pIC50 [2] of 7.21 and a pIC50 [3] of 7.70. It also gave a pIC50 [4] of 7.55.

With O=P(O)(O)C(F)(F)c1ccc(CC(Cc2ccc(Br)cc2)(c2ccccc2)n2nnc3ccccc32)cc1 (stereo unspecified) the pIC50 [1] was 4.77, the pIC50 [2] was 5.80 and the pIC50 [3] was 7.05. The pIC50 [4] was 7.04.

With O=P(O)(O)C(F)(F)c1ccc(CC(c2ccccc2)n2nnc3ccccc32)cc1 (stereo unspecified) the pIC50 [1] was < 4.30, the pIC50 [3] was 5.09 and the pIC50 [4] was 5.14.
